Experiment [1] relates to IL-2 promoter. Briefly: IL-2 promoter luciferase reporter assay in anti-CD3 activated Jurkat cells. The conditions noted are these: Homo sapiens, TCR-induced (anti-CD3) IL-2 promoter luciferase, 2 h pre-incubation. The format is cell-based. The procedure:
In order to confirm whether the compounds of the invention can pass through a cell membrane and inhibit the expression of IL-2 gene leading to T-cell proliferation, the present inventors firstly confirmed T-cell activity by detecting the activity of the luciferase fused on the downstream of IL-2 promoter.
To investigate the activity of IL-2 promoter, Jurkat cells (1×10^6) were transfected with a IL-2 reporter plasmids using Superfect™ (Qiagen Inc.). After 24 hours of transfection, Jurkat cells were pre-incubated with compounds of various concentrations (1 uM-50 uM) for 2 hours and further cultured on 35mm plate pre-coated with 5 ug/ml of anti-CD3 antibody, resulting in T cell activation. The luciferase activity was measured using Berthold luminometer LB953. The IC50 (50% inhibition concentration) of the compounds of the invention on TCR-induced IL-2 promoter activation are shown in Table 2.

The subject of experiment [2] is collagen-induced rheumatoid arthritis. Briefly: Inhibition of collagen-induced rheumatoid arthritis in DBA1/LacJ mice. The experiment is classed as in vivo, mouse. Further details: key: sum of 4 leg scores (0-4 each), max 16. As to conditions: maximum 16, mean ± standard deviation. The procedure: After 2 weeks, booster immunization was carried out with 50 μg C II/IFA. From the 3rd week after primary immunization, compounds of the present invention were injected daily into peritoneal cavities of 6-8 mice per group for 15-20 days.
The vehicle control groups were injected daily with 100 μl of 5% ethanol-olive oil mixture in total 15-20 times. Widely used anti-rheumatic drug, Methotrexate, was dissolved in PBS and then injected to mice at 1 mg/kg/day every other day in total 8-10 times. Meanwhile, the compounds of the invention were dissolved in ethanol and then mulsified in olive oil, in which the final ethanol concentration was adjusted to 5% and the compounds of this invention was 50 mg/kg/day.
From the 3rd week after primary immunization, the extent of edema and the joint swelling was monitored everyday to determine arthritic index. Arthitic index is the sum of the arthritic scores of all 4 legs and, therefore, maximum arthritis index of 16 can be achieved (e.g., [4 (maximum arthritic score)/leg]×[4 legs/mouse]=16 (maximum arthritis index/mouse)). […] was presented by the mean arthritis index±standard deviation of each mouse group.

Experiment [3] addresses T1, GST-fused lck SH2 domain (Homo sapiens, UniProt P06239).
T1 construct: GST (Glutathione transferase)-fused lck SH2 domain
Briefly: Inhibition of in vitro binding of lck SH2 domain to its cognate pYEEI peptide (BIAcore 2000). As to conditions: IC50 class for inhibition of GST-lckSH2 binding to immobilized biotinylated […]pYEEIPI peptide; read-out: BOND DEGREE WITH SH2 OF 1ck. The procedure:
The present inventors investigated the inhibition activity of phenyl derivatives on the interaction of GST (Glutathione transferase)-fused lck SH2 domain and a peptide […]pYEEIPI (comprising the sequence PYEEI, a cognate peptide of Lck SH2) by using a real time sensorgram (BIAcore 2000).
At first, the biotinylated peptide was fixed on the surface of BIAcore analysis apparatus and then GST-lckSH2 protein was injected over the surface of the immobilized peptides. The binding of GST-lck SH2 with the peptide is represented as the resonance units (referred as “RU” hereinafter) and 1,000 RU corresponds to a change in surface concentration of 1 ng/mm^2. The binding of GST-lck with the fixed peptide causes the change of refractory index, leading to the increase of RU. In the mean time, when the binding of GST-lck with the fixed peptide is inhibited, RU decreases. Those results are represented in Table 1.

The mark [4] stands for this setting: 50 mg/kg/day i.p. daily, day 15 after treatment (day 36 after primary immunization), sum of scores of four legs.

Structures are written as SMILES.

T1 sequence (P06239 127-224 limits assumed): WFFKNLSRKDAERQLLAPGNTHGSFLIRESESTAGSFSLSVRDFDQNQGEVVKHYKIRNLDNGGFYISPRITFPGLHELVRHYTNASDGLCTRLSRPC

Consider `CCOC(=O)[C@@H](Cc1ccc(O)c(O)c1)NC(=O)/C=C/c1ccc(O)c(O)c1` [Example 3, 3-(3,4-dihydroxy-phenyl)-(R)-2-[3-trans-(3,4-dihydroxy-phenyl)-acryloylamino]-propionic acid ethyl ester], for which the IC50 was 4.8 µM in experiment [1] and under 10 µM in experiment [3]. For the same compound, in experiment [2] (setting [4]), the Arthritis index worked out at 4.5 ± 0.8.
Consider `CCCOC(=O)[C@@H](Cc1ccc(O)c(O)c1)NC(=O)/C=C/c1ccc(O)c(O)c1` [Example 4, 3-(3,4-dihydroxy-phenyl)-(R)-2-[3-trans-(3,4-dihydroxy-phenyl)-acryloylamino]-propionic acid propyl ester], for which the results for the IC50 in experiment [1] and in experiment [3] were 7.8 µM and under 10 µM, respectively. In experiment [2] (setting [4]), this compound returned an Arthritis index of 5.6 ± 0.5.
Turning to `CC(C)OC(=O)[C@@H](Cc1ccc(O)c(O)c1)NC(=O)/C=C/c1ccc(O)c(O)c1` [Example 5, 3-(3,4-dihydroxy-phenyl)-(R)-2-[3-trans-(3,4-dihydroxy-phenyl)-acryloylamino]-propionic acid isopropyl ester], the IC50 in experiment [1] was 6.5 µM; in experiment [3], under 10 µM. The Arthritis index in experiment [2] (setting [4]) amounted to 4.9 ± 1.2.
As to `CC(C)(C)OC(=O)[C@@H](Cc1ccc(O)c(O)c1)NC(=O)/C=C/c1ccc(O)c(O)c1` [Example 6, 3-(3,4-dihydroxy-phenyl)-(R)-2-[3-trans-(3,4-dihydroxy-phenyl)-acryloylamino]propionic acid tert-butyl ester], the IC50 is 7.8 µM in experiment [1] and 10 to 25 µM in experiment [3]. Further, the Arthritis index in experiment [2] (setting [4]) amounted to 5.8 ± 0.9.
As to `NC(=O)[C@@H](Cc1ccc(O)c(O)c1)NC(=O)/C=C/c1ccc(O)c(O)c1` [Example 7], the IC50 in experiment [1] is 2.4 µM; in experiment [3] it was under 10 µM. Moreover, in experiment [2] (setting [4]), the Arthritis index is given as 4.3 ± 1.5.
Consider `COC(=O)[C@@H](Cc1ccc(O)c(O)c1)NC(=S)/C=C/c1ccc(O)c(O)c1` [Example 15, 3-(3,4-dihydroxy-phenyl)-(R)-2-[3-trans-(3,4-dihydroxy-phenyl)-thioacryloylamino]-propionic acid methyl ester], for which the IC50 in experiment [1] is 17.1 µM; in experiment [3], 10 to 25 µM. This compound also came in with an Arthritis index in experiment [2] (setting [4]) of 5.7 ± 0.9.
`O=C(O)[C@@H](Cc1ccc(O)c(O)c1)NC(=S)/C=C/c1ccc(O)c(O)c1` [Example 16, 3-(3,4-dihydroxy-phenyl)-(R)-2-[3-trans-(3,4-dihydroxy-phenyl)-thioacryloylamino]-propionic acid]: the IC50 in experiment [1] was 6.7 µM; in experiment [3] it was 25 to 50 µM. Further, the Arthritis index in experiment [2] (setting [4]) is 7.2 ± 1.2.
Regarding `CCOC(=O)[C@@H](Cc1ccc(O)c(O)c1)NC(=S)/C=C/c1ccc(O)c(O)c1` [Example 17, 3-(3,4-dihydroxy-phenyl)-(R)-2-[3-trans-(3,4-dihydroxy-phenyl)-thioacryloylamino]-propionic acid ethyl ester], the IC50 in experiment [1] was 4.6 µM; in experiment [3] it was 10 to 25 µM. For the same compound, in experiment [2] (setting [4]), the Arthritis index was 5.4 ± 0.7.
For the compound `CCCOC(=O)[C@@H](Cc1ccc(O)c(O)c1)NC(=S)/C=C/c1ccc(O)c(O)c1` [Example 18, 3-(3,4-dihydroxy-phenyl)-(R)-2-[3-trans-(3,4-dihydroxy-phenyl)-thioacryloylamino]-propionic acid propyl ester], the IC50 in experiment [1] is 5.6 µM; in experiment [3], 10 to 25 µM. The compound further displayed an Arthritis index in experiment [2] (setting [4]) of 5.8 ± 0.3.
As to `CC(C)OC(=O)[C@@H](Cc1ccc(O)c(O)c1)NC(=S)/C=C/c1ccc(O)c(O)c1` [Example 19, 3-(3,4-dihydroxy-phenyl)-(R)-2-[3-trans-(3,4-dihydroxy-phenyl)-thioacryloylamino]-propionic acid isopropyl ester], the IC50 in experiment [1] was 8.9 µM; in experiment [3], 10 to 25 µM. Further, in experiment [2] (setting [4]), the Arthritis index is reported as 5.1 ± 1.1.
`CC(C)(C)OC(=O)[C@@H](Cc1ccc(O)c(O)c1)NC(=S)/C=C/c1ccc(O)c(O)c1` [Example 20, 3-(3,4-dihydroxy-phenyl)-(R)-2-[3-trans-(3,4-dihydroxy-phenyl)-thioacrylolamino]-propionic acid tert-butyl ester]: the values for the IC50 in experiment [1] and in experiment [3] were 21.4 µM and 25 to 50 µM, respectively. The Arthritis index in experiment [2] (setting [4]) was 6.7 ± 0.4.
Regarding `NC(=O)[C@@H](Cc1ccc(O)c(O)c1)NC(=S)/C=C/c1ccc(O)c(O)c1` [Example 21, 3-(3,4-dihydroxy-phenyl)-(R)-2-[3-trans-(3,4-dihydroxy-phenyl)-thioacryloylamino]-propioneamide], the figures for the IC50 in experiment [1] and in experiment [3] were 7.8 µM and 10 to 25 µM, respectively. In experiment [2] (setting [4]), this compound displayed an Arthritis index of 5.8 ± 1.3.
As for `COC(=O)[C@H](Cc1ccc(O)c(O)c1)NC(=S)/C=C/c1ccc(O)c(O)c1` [Example 22], the IC50 was 13.9 µM in experiment [1] and 25 to 50 µM in experiment [3]. In addition, in experiment [2] (setting [4]), the Arthritis index turned out to be 6.9 ± 1.2.
Consider `CCOC(=O)[C@H](Cc1ccc(O)c(O)c1)NC(=S)/C=C/c1ccc(O)c(O)c1` [Example 24, 3-(3,4-dihydroxy-phenyl)-(S)-2-[3-trans-(3,4-dihydroxy-phenyl)-thioacryloylamino]-propionic acid ethyl ester], for which the IC50 was 10.8 µM in experiment [1] and 10 to 25 µM in experiment [3]. This compound returned an Arthritis index in experiment [2] (setting [4]) of 6.1 ± 0.6.
In the same order, the values of `CC(C)OC(=O)[C@H](Cc1ccc(O)c(O)c1)NC(=S)/C=C/c1ccc(O)c(O)c1` [Example 26, 3-(3,4-dihydroxy-phenyl)-(S)-2-[3-trans-(3,4-dihydroxy-phenyl)-thioacryloylamino]-propionic acid isopropyl ester] are 18.7 µM, 25 to 50 µM and 7.0 ± 0.9.
In the same order, the values of `COC(=O)[C@@H](Cc1ccc(O)c(O)c1)N(C)C(=O)/C=C/c1ccc(O)c(O)c1` [Example 29, 3-(3,4-dihydroxy-phenyl)-(R)-2-{[3-trans-(3,4-dihydroxy-phenyl)-acryloyl]-methyl-amino}-propionic acid methyl ester] are 7.6 µM, 10 to 25 µM and 6.1 ± 2.1.
In the case of `CN(C(=O)/C=C/c1ccc(O)c(O)c1)[C@H](Cc1ccc(O)c(O)c1)C(=O)O` [Example 30], the IC50 in experiment [1] is 15.8 µM; in experiment [3], 25 to 50 µM. For the same compound, in experiment [2] (setting [4]), the Arthritis index was found to be 6.5 ± 0.6.
`CCOC(=O)[C@@H](Cc1ccc(O)c(O)c1)N(C)C(=O)/C=C/c1ccc(O)c(O)c1` [Example 31]: the IC50 in experiment [1] was 8.9 µM; in experiment [3] it was 10 to 25 µM. In experiment [2] (setting [4]), the Arthritis index is 5.9 ± 2.1.
`CCCOC(=O)[C@@H](Cc1ccc(O)c(O)c1)N(C)C(=O)/C=C/c1ccc(O)c(O)c1` [Example 32]: the IC50 is 9 µM in experiment [1] and 10 to 25 µM in experiment [3]. In addition, the Arthritis index in experiment [2] (setting [4]) is 5.3 ± 1.7.
For `COC(=O)[C@@H](Cc1ccc(O)c(O)c1)NC/C=C/c1ccc(O)c(O)c1` [Example 53, 3-(3,4-dihydroxy-phenyl)-2-[3-(3,4-dihydroxy-phenyl)-arylamino]-propionic acid methyl ester], the IC50 in experiment [3] is 25 to 50 µM.
`CN(Cc1cnc2nc(N)nc(N)c2n1)c1ccc(C(=O)N[C@@H](CCC(=O)O)C(=O)O)cc1` [MTX, methotrexate, reference compound]: in experiment [2] (Methotrexate 1 mg/kg/day every other day in PBS, day 15 after treatment), the Arthritis index is listed as 4.0 ± 1.1.

(Values after US20040082664A1, “Derivatives of hydroxyphenyl, a method for preparing thereof and their pharmaceutical composition” (priority 2002, published 2004).)
